The subject of series [1] is Abcg4. The series is described as follows: In situ brain perfusion (ISBP): brain uptake clearance of tritiated tracers at the luminal BBB, WT and Abcg4-KO mice.
Experimental: (§1) The function of Abcg4 at the mouse BBB was evaluated by using the in situ brain perfusion (ISBP) technique. This method was developed to study drug transport processes occurring at the luminal side of the BCECs[40],[41] and can be used to measure transport parameters, including the brain volume of distribution and the brain uptake clearance (Clup) of a target molecule over very short periods (30–120 s). The resulting Clup integrates the effect of enhancing or limiting factors introduced by the transporters located at the luminal side of BCECs. This method allows for measurement of the initial brain uptake of molecules, which results from both the influx and the efflux mechanisms involved in their transport. One of the advantages of this technique is the ability to administer inhibitors, or to use transporter deficient mice, in order to modulate function at the luminal side of the BBB.
(§2) Mice were anesthetized by intra-peritoneal injection of a mixture of ketamine and xylazine at 140:8 mg/kg. The right common carotid artery was ligated on the heart side and the right external carotid artery was ligated at the level of the bifurcation. A catheter was inserted into the right common carotid artery. The perfusion liquid was contained in a syringe placed in an infusion pump and connected to the catheter. Before the perfusion, the thorax of the animal was opened, the heart was removed and perfusion started immediately at flow of 2.5 mL/min. The perfusion fluid was Krebs bicarbonate-buffered physiological saline (128 mM NaCl, 24 mM NaHCO3, 4.2 mM KCl, 2.4 NaH2PO4, 1.5 mM CaCl2, 0.9 mM MgCl2 and 9 mM D-glucose).The solution was gassed with 95% O2−5% CO2 to bring the pH to 7.40 and warmed to 37 °C in water bath. Each mouse was perfused for 60 s with [^3H]Aβ1–40 (0.2 µCi/mL) or [^3H]desmosterol (0.2 µCi/mL). [^14C]sucrose was used as a vascular marker of the physical integrity of the BBB and co-perfused with the tritiated substrate. The brain uptake of tritiated tracers was also measured in the presence of unlabeled substrates [probucol 10 µM, desmosterol 20 µM orT4 10 µM], dissolved in their respective vehicles [DMSO ( < 0.5% in final perfusion fluid) or H2O/NaOH]. The experiment was terminated by decapitating the mouse. The right cerebral hemisphere and aliquots of the perfusion fluid were sampled in tared vials, weighted, digested in 2 mL of Solvable® solubilizer (PerkinElmer, Courtaboeuf, France) at 50 °C and mixed with 9 mL of Ultima Gold XR® scintillation cocktail (PerkinElmer). Labeled compounds were counted on a Tri-Carb® (PerkinElmer) counter with the appropriate dual (^14C/^3H) quenching curves and standards to measure disintegration per minute (dpm) in samples.
(§3) The brain uptake clearance (Clup, µL/g) is the ratio between the apparent tissue distribution volume (Vbrain, µL/g) of [^3H]Aβ1–40 or [^3H]desmosterol and the perfusion time (s). The Vbrain was calculated from the amount of radioactivity in the right brain hemisphere using the following equation: Vbrain=Xbrain/Cperf where Xbrain (dpm/g) is the calculated amount of tritiated tracer in the right cerebral parenchyma and Cperf (dpm/µL) is the concentration of tritiated tracer in the perfusion fluid. Xbrain is obtained by this equation: Xbrain=Xtot−(Vvasc×Cperf) where Xtot (dpm/g) is the total amount of tritiated tracer measured in the brain tissue sample (vascular and extravascular).
For series [2], the target named is T1, Abcg4 (Mus musculus, UniProt Q91WA9). The series is described as above. As to conditions: WT mice, 60 s perfusion.
Experimental: as §1, §2, §3
The target in series [3] is T1, Abcg4. Kind of series: Abcg4-mediated Aβ transport/efflux in HEK-Abcg4 transfected cells. As to conditions: data not shown. Type of series: cell-based. From the text:
Abcg4 monomers come together to form a homodimer that includes nearly identical binding clefts which are opposite one another on the dimer surface. The homology model is an approximation of the dimer structure frozen in time which fails to capture the dynamic nature of protein motions. In vivo it is likely that nucleotide binding changes the overall configuration of the dimer to allow for sterol binding on one side of the complex followed by translocation of sterol to the dimer core before being exported from the membrane. One consequence of this movement could be that only one sterol-binding site exists at a given time. Thus, sterol binding would alternate from one binding site to the other as sterols are translocated. This mechanism could explain why the homology model has a single sterol-binding site despite the presence of two nearly identical binding clefts. […] Abcg4 seems to have two Aβ binding sites which agrees with our previous data that percent efflux of Aβ was greater than cholesterol[18] and with our current data that desmosterol competes with Aβ efflux. Furthermore, we previously measured, in HEK-Abcg4 transfected cells, the velocity of Aβ transport by Abcg4 as a function of [^3H]Aβ1-40 concentrations. […]

A further series relates to Abcb1 and Abcg2. The conditions noted are these: brain efflux index (BEI) method; cited from earlier work.
The conditions of series [4]: mouse, in vivo.
Experimental: Mice were anesthetized by intra-peritoneal injection of a mixture of ketamine and xylazine at 140:8 mg/kg. The right common carotid artery was ligated on the heart side and the right external carotid artery was ligated at the level of the bifurcation. A catheter was inserted into the right common carotid artery. The perfusion liquid was contained in a syringe placed in an infusion pump and connected to the catheter. Before the perfusion, the thorax of the animal was opened, the heart was removed and perfusion started immediately at flow of 2.5 mL/min. […] The brain uptake of tritiated tracers was also measured in the presence of unlabeled substrates [probucol 10 µM, desmosterol 20 µM orT4 10 µM], dissolved in their respective vehicles [DMSO ( < 0.5% in final perfusion fluid) or H2O/NaOH]. […] Labeled compounds were counted on a Tri-Carb® (PerkinElmer) counter with the appropriate dual (^14C/^3H) quenching curves and standards to measure disintegration per minute (dpm) in samples.
The brain uptake clearance (Clup, µL/g) is the ratio between the apparent tissue distribution volume (Vbrain, µL/g) of [^3H]Aβ1–40 or [^3H]desmosterol and the perfusion time (s). […] Xbrain is obtained by this equation: Xbrain=Xtot−(Vvasc×Cperf) where Xtot (dpm/g) is the total amount of tritiated tracer measured in the brain tissue sample (vascular and extravascular).
Series [5] has as its system Abcg4. The conditions noted are these: mouse, in vivo.
Experimental: as §1, §2, §3
The subject of the next series is Abcb1. Further details: method as in PMID 11181832. As to conditions: read-out: Km of Aβ reported for Abcb1; cited from earlier work.
Series [6] concerns the target T1, Abcg4. Set-up: Wild-type C57BL/6 and Abcg4-KO mice had free access to standard laboratory food and water; from tissue; host or cells: brain capillary endothelial cells of living C57BL/6 mice (in situ brain perfusion). The conditions noted are these: HEK-Abcg4 transfected cells; cited from earlier work. From the text: We had shown previously that a probucol- and T4-sensitive transporter, different from Abca1, Abcb1 and Abcg2, restricted the brain entry of [^3H]Aβ1-40 through the mouse BBB[18],[43].

[7] abbreviates: Abcg4-KO mice, T4 10 µM, 60 s perfusion, 5–8 mice.
Setting [8] is: T4 10 µM in perfusion buffer, means of 5–8 mice.
Where [9] appears, read: Abcg4-KO mice, probucol 10 µM, 60 s perfusion, 8–9 mice.

Like-named read-outs stand apart in the source and are kept apart here.

T1 sequence (Q91WA9 whole entry, the tested form may be a part): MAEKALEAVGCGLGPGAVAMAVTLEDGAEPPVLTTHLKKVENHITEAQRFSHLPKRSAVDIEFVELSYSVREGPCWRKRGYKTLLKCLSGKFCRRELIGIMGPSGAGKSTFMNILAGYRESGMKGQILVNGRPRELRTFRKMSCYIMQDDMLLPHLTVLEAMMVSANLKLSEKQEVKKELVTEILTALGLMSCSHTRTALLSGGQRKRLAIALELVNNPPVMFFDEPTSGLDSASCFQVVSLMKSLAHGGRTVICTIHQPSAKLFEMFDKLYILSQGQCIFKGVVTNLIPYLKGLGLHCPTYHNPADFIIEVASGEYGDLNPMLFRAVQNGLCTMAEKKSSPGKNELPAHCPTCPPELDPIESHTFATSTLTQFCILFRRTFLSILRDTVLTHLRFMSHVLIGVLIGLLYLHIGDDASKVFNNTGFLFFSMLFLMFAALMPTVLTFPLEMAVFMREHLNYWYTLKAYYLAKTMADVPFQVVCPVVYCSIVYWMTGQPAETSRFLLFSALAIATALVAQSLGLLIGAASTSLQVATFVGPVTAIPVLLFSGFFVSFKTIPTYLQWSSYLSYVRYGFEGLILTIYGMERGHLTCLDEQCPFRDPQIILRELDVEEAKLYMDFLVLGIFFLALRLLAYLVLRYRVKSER

Turning to `CC(C)=CCC[C@@H](C)[C@H]1CC[C@H]2[C@@H]3CC=C4C[C@@H](O)CC[C@]4(C)[C@H]3CC[C@]12C` [desmosterol], the “Effect of desmosterol on [3H]Aβ1-40 Clup” value in the series with Abcg4 [1] (Abcg4-KO mice, desmosterol 20 µM, 60 s perfusion, 5–7 mice) is “no significant effect”. Moreover, the “Time course of brain volume of distribution (Vbrain) as a function of perfusion time” value in the series with Abcg4 [1] (WT C57BL/6 mice, right hemisphere, in situ brain perfusion, 3 animals per data point, r2 = 0.944) is “linear increase”. Further, the “Brain uptake clearance (Clup) in Abcg4-KO mice compared with WT mice” value with Abcg4 [1] (in situ brain perfusion, 60 s, tracer 0.2 µCi/mL, absence of probucol, 8–9 mice, two-way ANOVA, Bonferroni) was “not significantly different”. Also, on Abcg4 [2] (desmosterol 20 µM in perfusion buffer, means of 5–7 mice), the “Increase of [3H]Aβ1-40 Clup in the presence vs absence of desmosterol (ER desmosterol/ctrl)” value is reported as 1.8 fold.

Turning to `N[C@@H](Cc1cc(I)c(Oc2cc(I)c(O)c(I)c2)c(I)c1)C(=O)O` [T4, L-thyroxine], in the series with Abcg4 [1] (setting [7]), the “Effect of T4 on [3H]Aβ1–40 Clup” value is listed as “this effect was lost” and the “Effect of T4 on [3H]desmosterol Clup” value is listed as “this effect was lost”. On Abcg4 [2] (setting [8]), the “Increase of [3H]Aβ1–40 Clup in the presence vs absence of T4 (ER T4/ctrl)” value stood at 2 fold and the “Increase of [3H]desmosterol Clup in the presence vs absence of T4 (ER T4/ctrl)” value was 1.8 fold. In addition, the “Inhibition of Abcg4-mediated Aβ efflux” value on Abcg4 [3] is given as 5.8 fold.

For the compound `CNC(=O)c1cc(Oc2ccc(NC(=O)Nc3ccc(Cl)c(C(F)(F)F)c3)cc2)ccn1` [sorafenib], in the series with Abcb1 and Abcg2, the “Brain clearance in Mdr1a/b−/− mice compared with WT mice” value is reported as “the same”, the “Decrease of brain clearance in Abcb1/Abcg2-deficient mice” value was 2.5 fold and the “Decrease of brain clearance in Abcg2-deficient mice” value is 2 fold.

As to `OC[C@H]1O[C@@](CO)(O[C@H]2O[C@H](CO)[C@@H](O)[C@H](O)[C@H]2O)[C@@H](O)[C@@H]1O` [sucrose], in series [4], the “Brain vascular volume (Vvasc), distribution volume of [14C]sucrose” value is “under 20 µL/g”.

For “Aβ1–40: amyloid-β peptide, 40 amino-acid form, used tritiated as transport tracer”, the “Brain uptake clearance (Clup) in Abcg4-KO mice compared with WT mice” value with Abcg4 [5] was “not significantly different”. In addition, the Km (commonly the concentration of substrate that gives half-maximal velocity) in the series with Abcb1 was 12.5 µM.

Regarding `CC(C)(Sc1cc(C(C)(C)C)c(O)c(C(C)(C)C)c1)Sc1cc(C(C)(C)C)c(O)c(C(C)(C)C)c1` [probucol], in the series with Abcg4 [1] (setting [9]), the “Effect of probucol on [3H]Aβ1–40 Clup” value is “this effect was lost” and the “Effect of probucol on [3H]desmosterol Clup” value was “this effect was lost”. For the same compound, on Abcg4 [2] (probucol 10 µM in perfusion fluid, [3H]desmosterol 0.2 µCi/mL, Krebs bicarbonate pH 7.40, 37 °C, means of 8–9 mice), the “Increase of [3H]desmosterol Clup in the presence vs absence of probucol (ER probucol/ctrl)” value is 1.8 fold. The “Increase of [3H]Aβ1–40 Clup in the presence vs absence of probucol (ER probucol/ctrl)” value at Abcg4 [2] (probucol 10 µM, [3H]Aβ1–40 0.2 µCi/mL, pH 7.40, 37 °C, means of 8–9 mice) amounted to 2.1 fold. In addition, the “Inhibition of Abcg4-mediated Aβ efflux” value on Abcg4 [6] is given as 2 fold.
